From EP0336800A1, “Methods and kit for determining sulfamethazine in animal fluids or feed” (IDETEK, INC., priority 1988, dated 1989)
Where “and” joins values, the source holds several entries; their conditions need not be identical. Equal entries are not always repeated.

Test system: anti-sulfamethazine antibody
Experiment: Competitive direct enzyme immunoassay (EIA) with immobilized anti-sulfamethazine antibody and sulfamethazine-HRP conjugate
Type: binding, New Zealand female white rabbits
Conditions: (nM of sulfamethazine for 50% binding/nM sulfa analogue for 50% binding) x 100
Procedure: Each well of the microtiter plate was filled with 200 µL solution of r-Protein A (2 µg/mL in l0 mM PBS, pH 7.2). These strips were sealed and incubated at 4°C for 5 hours. The r-Protein A solution was aspirated and the wells were washed 5 times with saline-Tween (0.9 percent NaCl containing 0.05 percent Tween-20). Each well was then incubated with 300µL solution of 0.l percent casein in 20 mM PBS, pH 7.2, at 37°C for 30 min and washed as described above. Each well was then filled with 200µL of antibody solution (l2.5 µg/mL in 50 mM carbonate-bicarbonate buffer, pH 9.6) and incubated at 4°C overnight (l5-20 hours). The solution was aspirated and the wells air-dried at room temperature for 2-3 hours. The antibody immobilized microtiter wells thus prepared were stored in ziplock bags at 4°C.
The enzyme conjugate (sulfamethazine-HRP) was appropriately diluted (generally l:l000) with 20 mM PBS, pH 7.2, containing 0.0l percent casein (w/v) and mixed with standards or samples in l0:l ratio. The mixture was transferred to wells ([…]) and incubated at 37°C for l hour. The wells were washed five times with 20 mM PBS, pH 7.2, containing 0.05 percent Tween-20 (v/v). Each well was then filled with l00 µL of ABTS substrate solution (combine l:l (v/v) lmM ABTS, 0.lM citrate, pH 4.0, and 0.0l% thimerosal with 0.0l% H₂O₂, and 0.0l% thimerosal) and incubated at 37°C for about 20 min for color (bluish-green) development. The color development was stopped with l00 µL of l percent SDS solution (w/v). Absorbance of the color was monitored at 405 nm in an EIA plate reader. Percent binding was calculated from the absorbance contained in the absence (B′) and presence (B) of sulfamethazine in standards/samples as follows: % binding = (B/B′) x l00.
A standard curve was prepared by plotting log sulfamethazine concentration vs. percent binding. The content of sulfamethazine in an unknown sample was determined from the standard curve.

Compound | % Cross-Reactivity
[H]/N=C(/N)NS(=O)(=O)c1ccc(N)cc1 [Sulfaguanidine] | 0.0%
Nc1ccc(S(=O)(=O)Nc2ccc(Cl)nn2)cc1 [Sulfachloropyridazine] | 0.0%
Nc1ccc(S(=O)(=O)Nc2ccccn2)cc1 [Sulfapyridine] | 0.0%
Cc1nc(NS(=O)(=O)c2ccc(N)cc2)oc1C [N′-(4,5-Dimethyloxazol-2-yl) sulfanilamide] | 0.0%
COc1cnc(NS(=O)(=O)c2ccc(N)cc2)nc1 [5-Methoxysulfadiazine] | 0.34%
NS(N)(=O)=O [Sulfamide] | 0.0%
Nc1ccc(S(=O)(=O)[O-])cc1.O.[Na+] [Sulfanilic acid, sodium salt hydrate] | 0.0%
Nc1ccc(S(=O)(=O)Nc2ncccn2)cc1 [Sulfadiazine] | 0.0%
Nc1ccc(S(=O)(=O)Nc2nccs2)cc1 [Sulfathiazole] | 0.07%
NS(=O)(=O)c1ccc(C(=O)O)cc1 [4-Carboxybenzenesulfonamide] | 0.0%
Cc1cc(C)nc(NS(=O)(=O)c2ccc(N)cc2)n1 [Sulfamethazine] | 100.0%
Cc1cc(NS(=O)(=O)c2ccc(N)cc2)no1 [Sulfamethoxazole] | 0.0%
Nc1ccc(S(=O)(=O)F)cc1 [Sulfanilyl fluoride] | 0.0%

Results, then the compound that gave them:

% Cross-Reactivity | Compound
0.0% | Cc1cc(C(C)(C)C)c(O)c(C(C)(C)C)c1 [2,6-Di-tert.-butyl-4-methyl phenol]
0.0% | Cc1cc(NS(=O)(=O)c2ccc(N)cc2)nc(C)n1 [Sulfisomidine]
0.66% | CC(=O)NS(=O)(=O)c1ccc(N)cc1 [Sulfacetamide]
0.0% | Cc1noc(NS(=O)(=O)c2ccc(N)cc2)c1C [Sulfisoxazole]
0.0% | Nc1ccc(S(=O)(=O)NC(=O)c2ccccc2)cc1 [Sulfabenzamide]
0.0% | Nc1ccc(S(=O)(=O)Nc2cnc3ccccc3n2)cc1 [Sulfaquinoxaline]
0.06% | COc1cc(NS(=O)(=O)c2ccc(N)cc2)nc(OC)n1 [Sulfadimethoxine]
0.0% | Cc1c[nH]c(=O)[nH]c1=O [Thymine]
12% and 12.10% | Cc1ccnc(NS(=O)(=O)c2ccc(N)cc2)n1 [Sulfamerazine]
0.07% | Cc1cc(C)nc(N)n1 [2-Amino-4,6-Dimethylpyrimidine]
0.0% | Cc1nnc(NS(=O)(=O)c2ccc(N)cc2)s1 [Sulfamethizole]
0.0% | Sulfasazine
0.0% | CC(=O)Nc1ccc(S(=O)(=O)Nc2ccc([N+](=O)[O-])cc2)cc1 [Sulfanitran]
0.0% | COc1ccc(NS(=O)(=O)c2ccc(N)cc2)nn1 [Sulfamethoxypyridazine]
0.0% | Nc1ccc(S(=O)(=O)Nc2ccc3cn[nH]c3c2)cc1 [N′-(6-Indazolyl) sulfanilamine]
0.0% | Nc1ccc(S(N)(=O)=O)cc1 [Sulfanilamide]

Same assay, conditions: competitive EIA at 0 µg/mL and 0.l µg/mL of sulfamethazine

competition with sulfamethazine-HRP conjugate for antibody binding | Compound
competed effectively | Cc1cc(C)nc(NS(=O)(=O)c2ccc(N)cc2)n1 [Sulfamethazine]

Same assay, conditions: mid-region of the EIA standard curve; standards in swine plasma

50% inhibition in binding | Compound
around 0.l | Cc1cc(C)nc(NS(=O)(=O)c2ccc(N)cc2)n1 [Sulfamethazine]

Same assay, conditions: sulfamethazine standard 0.016 µg/mL; quadruplicate on 14 different days

% Binding Mean [%] | Compound
83.1 | Cc1cc(C)nc(NS(=O)(=O)c2ccc(N)cc2)n1 [Sulfamethazine]

Same assay, conditions: sulfamethazine standard 0.031 µg/mL; quadruplicate on 14 different days

% Binding Mean [%] | Compound
76.0 | Cc1cc(C)nc(NS(=O)(=O)c2ccc(N)cc2)n1 [Sulfamethazine]

Same assay, conditions: sulfamethazine standard 0.063 µg/mL; quadruplicate on 14 different days

% Binding Mean [%] | Compound
64.2 | Cc1cc(C)nc(NS(=O)(=O)c2ccc(N)cc2)n1 [Sulfamethazine]

Same assay, conditions: sulfamethazine standard 0.125 µg/mL; quadruplicate on 14 different days

% Binding Mean [%] | Compound
48.4 | Cc1cc(C)nc(NS(=O)(=O)c2ccc(N)cc2)n1 [Sulfamethazine]

Same assay, conditions: sulfamethazine standard 0.25 µg/mL; quadruplicate on 14 different days

% Binding Mean [%] | Compound
31.4 | Cc1cc(C)nc(NS(=O)(=O)c2ccc(N)cc2)n1 [Sulfamethazine]

Same assay, conditions: sulfamethazine standard 0.5 µg/mL; quadruplicate on 14 different days

% Binding Mean [%] | Compound
18.3 | Cc1cc(C)nc(NS(=O)(=O)c2ccc(N)cc2)n1 [Sulfamethazine]

Same assay, conditions: sulfamethazine standard 1.0 µg/mL; quadruplicate on 14 different days

% Binding Mean [%] | Compound
10.5 | Cc1cc(C)nc(NS(=O)(=O)c2ccc(N)cc2)n1 [Sulfamethazine]
